Test results published in US20060292072A1, “Agents for neutron capture therapy” (Pharmacyclics, Inc., priority 2001, published 2006).

What was measured:
tumors = conditions: prior art statement; cited from earlier work
[1] = tested on: V79 Chinese hamster cells; assay: V79 Chinese hamster cell survival assay after neutron irradiation; assay type: cell-based; conditions: 30 ppm, incubated twelve hours; neutron beam 2.8×10^11 n/cm^2 min; colony growth 5-6 days
Description: In vitro activity for neutron capture therapy is determined, e.g., by measuring the effect of low-level, thermal neutron irradiation on the V79 […] cell line in culture, and measuring resultant cytotoxicity, for example as described by Fairchild et al., Cancer Research 50. After the V79 cells are exposed to a neutron capture agent, they are irradiated with a neutron beam at a fluence rate of 2.8×10^11 n/cm^2 min. The cells are plated for undisturbed colony growth for 5-6 days, after which the remaining cell population is assessed.
The effect of neutron irradiation on V79 Chinese hamster cells incubated for twelve hours with ^157Gd-Tex is determined by a modification of the procedure originally described by Fairchild et al., Cancer Research 50 (1990). Three sets of sample plates of V79 cells are prepared. The first set (control cells) are suspended with 30 ppm ^157Gd-Tex in growth medium. The second set (washed cells) are suspended with 30 ppm ^157Gd-Tex in growth medium, then washed 3 times with PBS, trypsinized and harvested with gadolinium from reagents prior to suspension. The third set (ambient cells) are suspended in a 30 ppm ^157Gd containing medium.
All of the cells are irradiated within 1-2 hours following suspension in growth medium at a population density of 3.0×10^5 cells/ml. The neutron beam fluence rate at the center of the sample is 2.8×10^11 n/cm^2 min. […]

Glioma 261 tumor = assay: Neutron capture activity in mice with intracerebral Glioma 261 tumor; assay type: in vivo; conditions: group A: Gd-Tex intravenous plus 1.2×10^12 neutrons/cm^2 (20 Gy), versus groups B-E; female C57BL/6 mice, up to 100 days
Description: In vivo activity for neutron capture therapy is determined, e.g., by post-mortem histological examination of brain tumor tissue by hematoxylin and eosin, as described in Saris et al., Cancer Research, vol. 52 (1992). The antitumor effects of neutron capture therapy are evaluated by implanting Glioma 261 tumor fragments into the brain of a mouse. Approximately 3 hours after administration of a neutron capture agent to be tested, the head is irradiated a with 1.2×10^12 neutron beam (resulting in a planned dose of […]). After 100 days the mouse is sacrificed and the tumorous and non-tumorous sections of the brain are stained with hematoxylin and eosin for histologic examination. The tumor bearing and control brain tissue sections are compared.
This procedure is a modification of a procedure initially described by Saris et al., Cancer Research, vol. 52 (1992). Glioma 261 tumor fragments are injected approximately 2 mm deep to the dura of the brain in 42 female C57BL/6 mice. The mice are randomized into 5 groups. The mice in group A receive […] mg/kg Gd-Tex and 1.2×10^12 neutrons/cm^2 resulting in 20 Gy. Group B mice receive 1.2×10^12 neutrons/cm^2 resulting in 20 Gy. The mice in group C receive […] mg/kg Gd-Tex and 10 Gy of photon irradiation. Group D receives […] mg/kg of Gd-Tex alone. Group E receives no treatment. […]

[2] = prior art statement; cited from earlier work

Molecule	selectivity for tumors / accumulation in tumor tissue (tumors)	other results
O=C([O-])CN1CCN(CC(=O)[O-])CCN(CC(=O)O)CCN(CC(=O)[O-])CC1.[Gd+3] [Gd-DOTA, gadoteric acid]	not found to be tumor selective	–
O=C([O-])CN(CCN(CC(=O)[O-])CC(=O)O)CCN(CC(=O)[O-])CC(=O)O.[Gd+3] [Gd-DTPA, gadolinium diethylenetriamine-pentaacetic acid]	not found to be tumor selective	–
N[C@@H](Cc1ccc(B(O)O)cc1)C(=O)O [p-boron-phenylalanine]	limited selectivity for tumors	tumor/blood concentration ratios (tumors): poor tumor/blood concentration ratios
^157Gd complex of 4,5-diethyl-10,23-dimethyl-9,24-bis(3-hydroxy propyl)-16,17-bis[2-[2-(2-methoxyethoxy)ethoxy]ethoxy]pentaazapentacyclo[20.2.1.1^3,6.1^8,11.0^14,19]heptacos a-1,3,5,7,9,11(27),12,14,16,18,20,22(25),23-tridecaene bis acetate [^157Gd-Tex]	–	survival of the control cells compared with the washed or ambient cells [1]: significantly higher
bis(acetato-O)[9,10-diethyl-20,21-bis[2-[2-(2-methoxyethoxy)ethoxy]ethoxy]-4,15-dimethyl-8,11-imino-3,6:16,13-dinitrilo-1,18-benzodiazacycloeicosine-5,14-dipropanolato-N1,N18,N23,N24,N25]gadolinium [Gd-Tex]	–	survival rate (Glioma 261 tumor): greater survival rate than any of the other groups
tetrakiscarborane carboxylate ester of 2,4-(a,b-dihydroxyethyl)deuteroporphyrin [BOPP]	poor selectivity for tumors	phototoxicity [2]: phototoxic
